Test [1] relates to BJ. Nature of the test: cytotoxicity toward BJ-TERT fibroblasts, dose response, cell-based, RAS-independent, luminescence (AID 1933). Type of test: functional. The note with it: Homo sapiens.
The nature of test [2]: cytotoxicity toward DRD oncogenic fibroblasts, dose response, cell-based, non-viral oncogenic, luminescence (AID 1934). The note with it: Homo sapiens. Type of test: functional.
Test [3] relates to HEK293. Nature of the test: cells. Type of test: functional, cell-based. The following applies: Homo sapiens.
In test [4] the target is E3 ubiquitin-protein ligase Mdm2 (Homo sapiens, UniProt Q00987). Description: enhancers of MDM2-luciferase reporter signal, concentration-effect titration, project on inhibitors of MDM2 ubiquitin ligase, cellular assay, luminescent readout, 384-well plate format (AID 1394).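 Also: MDM2 E3 inhibitors raise luminescence so EC50 is for signal enhancement.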 It counts as functional. Background: Reporter assays use an easily measured gene product as a stand-in for the process of interest.

For test [5], the system named is HEK293. Description: cells. Type of test: functional, cell-based. The note with it: Homo sapiens. This is another data set of the same source.
In test [6] the target is Beta-2 adrenergic receptor (Homo sapiens, UniProt P07550). Nature of the test: beta2AR agonists driving receptor internalization, dose response, cell-based, FAP fluorogen, flow cytometry, cherry pick 1 (AID 588763). It counts as functional. (In general: In flow cytometry, cells or beads pass a laser one at a time.)
For test [7], the system named is BJ. Nature of the test: cells. It counts as functional, cell-based. The note with it: Homo sapiens.
The target of test [8] is Nucleotide-binding oligomerization domain-containing protein 2 (Homo sapiens, UniProt Q9HC29). Nature of the test: NOD2 signaling inhibitors, cell-based, luminescence, uHTS, HEK293 (AID 1566). It counts as functional.
For the next test, the target named is Melanocortin receptor 4 (Homo sapiens, UniProt P32245). Description: MC4R antagonist potency on cAMP, dose response, cell-based, TR-FRET, biased antagonists (AID 602298).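 Also: antagonist potency against agonist-stimulated cAMP production.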 It counts as functional. On the technique in general: TR-FRET usually uses a lanthanide donor and a delayed reading to cut background.
Test [9] can be described thus: nonselective inhibitors of cellular cAMP signaling, dose response, counter-screen for MC4R biased antagonist project, cell-based, TR-FRET cAMP detection (AID 602305).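 Also: U2OS cells stimulated with forskolin near its EC80 as the cAMP inducer; potency is for inhibition of forskolin-stimulated cAMP signaling.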 Type of test: functional.
For test [10], the system named is HEK293. Description: NOD2 signaling inhibitors in MDP-stimulated cells, cell-based, uHTS, luminescence (AID 2001). Type of test: functional. The following applies: Homo sapiens.
The subject of test [11] is HEK293. Description: cells. It counts as functional, cell-based. The note with it: Homo sapiens. The source holds these as a separate data set.
Test [12] deals with BJ. Nature of the test: cytotoxicity toward BJ-TERT-LT-ST fibroblasts, dose response, cell-based, RAS-independent, luminescence (AID 1935).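 Also: BJ fibroblasts immortalized with TERT plus LT and ST oncogenes.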 It counts as functional. The following applies: Homo sapiens.
For test [13], the system named is HEK293. Nature of the test: NOD1 signaling inhibitors, primary screen, cell-based, luminescence, uHTS (AID 1578). It counts as functional. The note with it: Homo sapiens.
In test [14] the target is Heat shock protein HSP 90-alpha (Homo sapiens, UniProt P07900). Description: Luminescence-based dose response biochemical high throughput screening assay for inhibitors of the Heat Shock Protein 90 (HSP90). [Related pubchem assays: 1831 (Summary AID.), 1846 (Confirmation screen.), 1789 (Primary screen.)].
Another test addresses Mu-type opioid receptor (Homo sapiens, UniProt P35372). Description: Late-stage results from the probe development effort to identify antagonists of OPRK1: luminescence-based cell-based dose response OPRM1 counterscreen. It counts as functional.
Test [15] deals with Delta-type opioid receptor (Homo sapiens, UniProt P41143). Nature of the test: Late-stage results from the probe development effort to identify antagonists of OPRK1: fluorescence-based cell-based dose response OPRD1 counterscreen. Type of test: functional.
The subject of a further test is H9c2. Description: cells. Type of test: functional, cell-based. The note with it: Rattus norvegicus, H9c2, Myocardium.
Test [16] in a line: Late stage results for the probe development effort to identify inhibitors of Plasmodium falciparum gametocytes: Luminescence-based cell-based high throughput dose response assay to identify inhibitors of viability of late stage Plasmodium falciparum gametocytes. Type of test: functional.
Test [17] in a line: Artemis endonuclease inhibitor potency, dose response, biochemical, fluorescence intensity (AID 720701).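 Also: Artemis endonuclease enzyme.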 It counts as functional.
Test [18] is described as follows: M. tuberculosis H37Rv growth inhibitors, H37Rv strain (AID 1626). It counts as functional.
The nature of test [19]: P. falciparum Dd2 growth inhibitors, dose response, SYBR Green, dry powder samples (AID 1159566).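 Also: potency for growth inhibition with lower SYBR green DNA signal.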 Type of test: functional, cell-based.
Test [20] can be described thus: HepG2 cell cytotoxicity, dose response, cytotoxicity control, plate reader, dry powder samples (AID 1159569).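 Also: inhibitor potency with signal falling toward the positive control level.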 It counts as functional, cell-based.
A short description of test [21]: P. falciparum Dd2 growth inhibitors, dose response, SYBR Green, cherry-picked samples (AID 1159567). It counts as functional, cell-based.
A short description of test [22]: P. falciparum 3D7-ScDHODH growth inhibitors, dose response, SYBR Green, dry powder samples (AID 1159570).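 Also: parasite growth measured after 72 hours of compound exposure.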 Type of test: functional, cell-based.
Test [23] is described as follows: P. falciparum ATP4 D1247Y mutant growth inhibitors, dose response, NITD609-resistant line, SYBR Green, dry powder (AID 1159571).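 Also: parasites synchronized at ring stage by sorbitol before testing.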 Type of test: functional, cell-based.
Test [24] can be described thus: RKO cell viability reduction, dose response, CellTiter-Glo luminescence (AID 1117322). Type of test: functional.
The nature of test [25]: Glucagon-like peptide 1 release potency, NCI-H716 cell line, dose-response, half-maximal inhibitory concentration (AID 1117344). Type of test: functional, cell-based.
Test [26] is described as follows: Concentration-dependent survival of SW480 colon cancer line, luminescence detection with CellTiter-Glo, half-maximal inhibitory concentration (AID 1117338). Type of test: functional.
Test [27] is described as follows: cytotoxicity toward Colo320 cells – cell-based, CellTiter-Glo luminescence, IC50, dose response (AID 1117334). It counts as functional. The note with it: COLO 320.
The nature of test [28]: cytotoxicity toward HCT116 cells – cell-based, CellTiter-Glo luminescence, IC50, dose response (AID 1117332). The note with it: HCT-116. Type of test: functional.
The nature of test [29]: HCT116 cell viability decrease, GSK3B pretreatment – CellTiter-Glo, IC50, dose response (AID 1117339). The following applies: HCT-116. It counts as functional.
Test [30] in a line: cytotoxicity toward HT-29 cells – cell-based, CellTiter-Glo luminescence, IC50, dose response (AID 1117330). Type of test: functional.
Test [31] is described as follows: half-maximal inhibitory concentration for glucagon-like peptide-1 release, STC-1 cell line, dose-response (AID 1117345). Type of test: functional, cell-based.
The nature of test [32]: HeLa cell cytotoxicity, dose response, cytotoxicity control for MgcRacGAP inhibitor project (AID 624300). It counts as functional.
For test [33], the target named is T1, Calpain-2 catalytic subunit (Sus scrofa, UniProt P43367).
T1 sequence (P43367 whole entry): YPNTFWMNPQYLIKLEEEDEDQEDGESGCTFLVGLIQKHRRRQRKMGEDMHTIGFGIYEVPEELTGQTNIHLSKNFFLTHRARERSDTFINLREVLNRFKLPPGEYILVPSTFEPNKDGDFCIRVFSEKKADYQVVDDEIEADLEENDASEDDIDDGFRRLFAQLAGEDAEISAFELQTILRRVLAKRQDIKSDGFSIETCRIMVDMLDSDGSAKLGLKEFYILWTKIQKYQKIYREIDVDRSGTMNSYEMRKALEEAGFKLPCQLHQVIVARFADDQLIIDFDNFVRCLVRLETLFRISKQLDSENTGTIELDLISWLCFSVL
Nature of the test: pig calpain II inhibitor potency, dose response, biochemical, fluorogenic peptide substrate (AID 1420). Type of test: functional.

In a further test the test system is Vero. Description: Vero cell cytotoxicity, cytotoxicity control for flavivirus capping enzyme inhibitors (AID 588742). Type of test: functional. The note with it: Chlorocebus sabaeus.
Test [34] concerns the target T2, Rac GTPase-activating protein 1 (Homo sapiens, UniProt Q9H0H5).
T2 sequence (Q9H0H5 whole entry): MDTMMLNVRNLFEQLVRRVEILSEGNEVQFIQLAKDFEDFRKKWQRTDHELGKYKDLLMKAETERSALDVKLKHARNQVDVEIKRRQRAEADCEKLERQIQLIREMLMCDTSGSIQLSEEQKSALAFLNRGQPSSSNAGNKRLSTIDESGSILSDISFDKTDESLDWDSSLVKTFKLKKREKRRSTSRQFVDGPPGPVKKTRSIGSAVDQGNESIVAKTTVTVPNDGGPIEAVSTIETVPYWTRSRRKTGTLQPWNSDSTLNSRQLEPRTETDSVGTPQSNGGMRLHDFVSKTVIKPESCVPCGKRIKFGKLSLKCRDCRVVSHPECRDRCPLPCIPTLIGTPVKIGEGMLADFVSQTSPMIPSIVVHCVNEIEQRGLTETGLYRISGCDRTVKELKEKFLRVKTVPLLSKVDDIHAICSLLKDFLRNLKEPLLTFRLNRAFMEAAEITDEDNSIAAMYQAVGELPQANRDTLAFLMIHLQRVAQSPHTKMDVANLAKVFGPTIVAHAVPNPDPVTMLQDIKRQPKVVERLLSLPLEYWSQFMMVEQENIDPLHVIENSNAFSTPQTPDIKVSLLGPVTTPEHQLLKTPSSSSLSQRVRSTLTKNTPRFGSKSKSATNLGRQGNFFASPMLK
Nature of the test: MgcRacGAP GTPase-activating activity inhibitors, confirmation, biochemical, ADP Hunter fluorescence, primary and confirmatory (AID 624330). It counts as functional.

The nature of test [35]: Vero cell cytotoxicity, dose response, cytotoxicity control for Vif-APOBEC3G degradation inhibitor project, Vero cells (AID 1117358). It counts as functional. The following applies: Human immunodeficiency virus 1, Vero.
A further test addresses X-box-binding protein 1 (Homo sapiens, UniProt P17861). It counts as functional, Cricetulus griseus.
In another test the target is Protein Tat (Human immunodeficiency virus type 1 group M subtype B (isolate HXB2)(HIV-1), UniProt P04608). It counts as functional.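 Also: tat binding to TAR RNA read out by fluorescence polarization.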
A short description of test [36]: THP-1 cell cytotoxicity, dose response, cytotoxicity control for Vif-APOBEC3G degradation inhibitor project, THP-1 cells (AID 1117359). Type of test: functional. The note with it: Human immunodeficiency virus 1, THP-1.

The source made the active and inactive calls.
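For Absolute IC50 (XBP1) in this document: confirmatory dose-response counter-screen serving a CHOP assay.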

Chain of Melanocortin receptor 4 (P32245 whole entry): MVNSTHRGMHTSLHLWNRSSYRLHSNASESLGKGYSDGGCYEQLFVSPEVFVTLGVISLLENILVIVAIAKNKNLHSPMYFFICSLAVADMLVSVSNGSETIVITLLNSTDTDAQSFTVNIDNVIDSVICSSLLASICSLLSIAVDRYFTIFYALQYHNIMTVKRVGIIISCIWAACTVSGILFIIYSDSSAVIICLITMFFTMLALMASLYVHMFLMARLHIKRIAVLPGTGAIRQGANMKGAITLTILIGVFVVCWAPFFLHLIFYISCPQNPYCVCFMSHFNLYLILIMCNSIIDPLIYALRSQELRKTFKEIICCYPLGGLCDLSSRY
Chain of Protein Tat (P04608 whole entry): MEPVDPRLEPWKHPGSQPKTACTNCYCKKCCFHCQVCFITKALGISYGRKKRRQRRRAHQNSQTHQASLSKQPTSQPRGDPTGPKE
Chain of E3 ubiquitin-protein ligase Mdm2 (Q00987 whole entry): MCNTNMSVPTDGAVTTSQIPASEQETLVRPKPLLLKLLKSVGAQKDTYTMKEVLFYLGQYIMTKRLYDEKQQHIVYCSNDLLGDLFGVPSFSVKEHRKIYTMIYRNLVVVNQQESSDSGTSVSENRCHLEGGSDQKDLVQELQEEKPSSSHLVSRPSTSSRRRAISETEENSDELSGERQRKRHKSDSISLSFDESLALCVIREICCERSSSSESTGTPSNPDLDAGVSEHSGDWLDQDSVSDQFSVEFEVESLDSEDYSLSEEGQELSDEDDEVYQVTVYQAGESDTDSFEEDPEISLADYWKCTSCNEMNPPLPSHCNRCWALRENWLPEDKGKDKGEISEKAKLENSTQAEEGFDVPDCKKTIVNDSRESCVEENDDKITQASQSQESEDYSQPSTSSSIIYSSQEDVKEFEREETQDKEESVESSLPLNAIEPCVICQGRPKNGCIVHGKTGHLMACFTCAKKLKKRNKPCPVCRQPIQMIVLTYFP
Chain of Delta-type opioid receptor (P41143 whole entry): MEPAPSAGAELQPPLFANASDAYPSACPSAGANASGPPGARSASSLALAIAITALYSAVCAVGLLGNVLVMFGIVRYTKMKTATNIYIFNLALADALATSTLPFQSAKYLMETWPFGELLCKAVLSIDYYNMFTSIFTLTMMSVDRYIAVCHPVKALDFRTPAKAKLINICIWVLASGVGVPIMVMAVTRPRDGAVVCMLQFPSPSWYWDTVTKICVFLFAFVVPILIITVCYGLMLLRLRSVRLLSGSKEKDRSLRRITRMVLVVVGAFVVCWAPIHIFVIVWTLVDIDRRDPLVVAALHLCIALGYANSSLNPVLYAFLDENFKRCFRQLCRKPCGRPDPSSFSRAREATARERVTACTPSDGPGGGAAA
Chain of Mu-type opioid receptor (P35372 whole entry): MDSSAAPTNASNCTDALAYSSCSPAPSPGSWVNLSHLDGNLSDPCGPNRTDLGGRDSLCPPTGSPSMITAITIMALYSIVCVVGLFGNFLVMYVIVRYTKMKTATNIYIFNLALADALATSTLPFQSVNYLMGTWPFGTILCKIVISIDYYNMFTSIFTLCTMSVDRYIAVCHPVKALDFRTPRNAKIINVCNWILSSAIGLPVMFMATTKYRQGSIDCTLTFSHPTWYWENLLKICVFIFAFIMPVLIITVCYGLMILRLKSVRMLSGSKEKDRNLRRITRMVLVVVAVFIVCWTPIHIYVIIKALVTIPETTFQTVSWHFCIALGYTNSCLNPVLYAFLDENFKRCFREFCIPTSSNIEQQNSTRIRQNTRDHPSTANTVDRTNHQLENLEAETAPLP
Chain of X-box-binding protein 1 (P17861 whole entry): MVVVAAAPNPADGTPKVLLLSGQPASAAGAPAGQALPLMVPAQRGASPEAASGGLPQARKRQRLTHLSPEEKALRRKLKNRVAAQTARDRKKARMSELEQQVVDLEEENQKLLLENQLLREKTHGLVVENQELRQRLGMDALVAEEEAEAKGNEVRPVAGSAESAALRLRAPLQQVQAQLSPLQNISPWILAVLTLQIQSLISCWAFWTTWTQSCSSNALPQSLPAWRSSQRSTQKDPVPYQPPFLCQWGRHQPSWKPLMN
Chain of Nucleotide-binding oligomerization domain-containing protein 2 (Q9HC29 whole entry, the tested form may be a part): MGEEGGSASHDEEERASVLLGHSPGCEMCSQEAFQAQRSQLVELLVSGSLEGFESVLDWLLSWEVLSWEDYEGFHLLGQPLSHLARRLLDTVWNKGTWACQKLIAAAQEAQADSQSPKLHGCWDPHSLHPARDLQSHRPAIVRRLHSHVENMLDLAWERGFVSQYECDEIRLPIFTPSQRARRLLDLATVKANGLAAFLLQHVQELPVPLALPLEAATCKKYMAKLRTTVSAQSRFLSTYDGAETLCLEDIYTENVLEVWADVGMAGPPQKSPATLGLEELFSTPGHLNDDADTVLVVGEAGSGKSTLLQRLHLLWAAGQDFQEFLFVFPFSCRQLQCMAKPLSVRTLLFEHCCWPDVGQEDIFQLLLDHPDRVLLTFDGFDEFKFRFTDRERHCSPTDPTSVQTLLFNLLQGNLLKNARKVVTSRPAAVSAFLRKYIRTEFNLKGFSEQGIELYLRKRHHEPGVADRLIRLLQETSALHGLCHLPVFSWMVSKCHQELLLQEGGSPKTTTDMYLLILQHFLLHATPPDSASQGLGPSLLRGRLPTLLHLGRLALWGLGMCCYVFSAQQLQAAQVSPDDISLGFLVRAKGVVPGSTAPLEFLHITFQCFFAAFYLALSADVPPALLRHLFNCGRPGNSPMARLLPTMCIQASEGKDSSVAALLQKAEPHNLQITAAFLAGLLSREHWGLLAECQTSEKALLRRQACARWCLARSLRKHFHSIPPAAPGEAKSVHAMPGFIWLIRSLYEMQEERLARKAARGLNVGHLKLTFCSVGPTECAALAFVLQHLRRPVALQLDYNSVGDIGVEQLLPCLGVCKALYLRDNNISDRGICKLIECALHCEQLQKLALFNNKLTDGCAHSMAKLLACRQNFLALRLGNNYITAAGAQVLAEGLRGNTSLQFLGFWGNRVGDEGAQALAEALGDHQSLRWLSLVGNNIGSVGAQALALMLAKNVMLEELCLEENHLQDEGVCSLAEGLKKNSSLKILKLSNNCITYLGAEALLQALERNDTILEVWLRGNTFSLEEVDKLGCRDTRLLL
Chain of Beta-2 adrenergic receptor (P07550 whole entry): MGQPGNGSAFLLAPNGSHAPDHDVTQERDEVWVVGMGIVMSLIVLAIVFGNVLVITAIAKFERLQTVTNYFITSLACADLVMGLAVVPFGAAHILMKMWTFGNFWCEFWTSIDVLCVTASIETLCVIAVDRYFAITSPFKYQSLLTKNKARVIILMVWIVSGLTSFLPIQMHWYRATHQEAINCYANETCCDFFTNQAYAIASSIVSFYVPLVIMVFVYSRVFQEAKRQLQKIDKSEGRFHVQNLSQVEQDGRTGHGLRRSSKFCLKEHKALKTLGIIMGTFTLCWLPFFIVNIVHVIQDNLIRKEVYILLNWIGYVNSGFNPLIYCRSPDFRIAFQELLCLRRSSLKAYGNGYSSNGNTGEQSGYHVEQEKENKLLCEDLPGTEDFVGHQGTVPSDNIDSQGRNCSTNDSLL

The term EC50 denotes the concentration that produces a half-maximal response. As usually defined, the IC50 is the concentration that inhibits the measured activity by half. Take `O=C(COC(=O)c1ccccc1C(=O)c1ccc(Cl)c([N+](=O)[O-])c1)NC1CCCCCC1`: the 50% effective concentration (EC50) is 4.41 µM (active) in the test on BJ [1]; 4.47 µM (active) in [2]; 12.4 µM (not active) in test [4]; 42.3 µM (inactive) in test [6]; 9.86 µM (inconclusive) with BJ [7]; > 20 µM (inactive) in test [8]. The values for the EC50 in the test with BJ [12] and in the test with HEK293 [13] were 4.91 µM (inconclusive) and 3.78 µM (active), respectively. Also, the IC50 in the test with HEK293 [3] is 1.9 µM (active); in the test on HEK293 [5] it was 18.3 µM (active); at Melanocortin receptor 4, 26.6 µM (inactive); in [9], > 64.6 µM (inactive); with HEK293 [10] it was 3.13 µM (active); in the test on HEK293 [11], > 20 µM (inactive).

In the case of `Cc1cc(C(=O)Cn2nc(C(=O)O)c3ccccc3c2=O)c(C)n1CC(F)(F)F`, the IC50 in [14] is recorded as > 60 µM (not active).

In the case of `COC(=O)c1cc(Br)cnc1N1CCC(NC2CCCC(O)C2)CC1` (configuration not stated), the IC50 on Mu-type opioid receptor was 16 µM (inactive); in [15], > 50 µM (inactive).

As for `COc1ccc(-c2nn(-c3ccccc3)cc2C(=O)Nc2nccs2)cc1`, the IC50 in the test with H9c2 is > 79 µM (inactive); in [16], > 74.4 µM (inactive); in [17], 9.49 µM (active); in [18], > 100 µM (active).

What is called AC50 is the midpoint of the concentration-response curve, whichever way the signal moves. On to `COc1ccc(S(=O)(=O)N2CCC3(CC2)CN(Cc2ccncc2)[C@@H](CO)c2[nH]c4cc(OC)ccc4c23)cc1`, for which the concentration at half-maximal activity (AC50) in test [19] is 1.17 µM (active); in test [20], 22.9 µM (active); in test [21], 2.29 µM (active); in test [22], 1.41 µM (active); in [23], 1.67 µM (active).

Regarding `Oc1ccc(Cl)cc1Cc1ccccc1` [CLOROPHENE], the IC50 in test [24] was > 20 µM (inactive); in [25], 33.8 µM (inactive); in [26], > 20 µM (inactive); in test [27], 13 µM (inactive); in test [28] it was > 20 µM (inactive); in test [29], > 6.67 µM (inactive). Moreover, the results for the IC50 in test [30] and in test [31] were > 20 µM (inactive) and 7.62 µM (inactive), respectively.

Broadly, the CC50 is the concentration giving 50% cytotoxicity. Take `CCOc1cccc(CNc2ccc(O)cc2)c1OCc1ccc(Cl)cc1Cl`: the CC50 was 85.7 µM (active) in test [32], 36.4 µM (active) with Vero, > 40 µM (active) in test [35] and 30.4 µM (active) in [36]. Besides, the IC50 in test [33] is 8.34 µM (not active); in test [34] it was 118 µM (active); on Protein Tat, > 100 µM (inconclusive). In addition, the “Absolute IC50 (XBP1)” value at X-box-binding protein 1 was determined as 10 µM.

Source of the values: ChEMBL document CHEMBL1201862, “PubChem BioAssay data set” (2004).
